± gives the expanded uncertainty stated by the source.
Experiments:
[1] = refractive index (Na D-line) (dimensionless); conditions: 293.15 K; 101.33 kPa; Liquid; Standard Abbe refractometry
[2] = 298.15 K; 101.33 kPa; Liquid; Vibrating tube method

Structure (SMILES) | refractive index [1] | mass density [2]
C=CC#N [acrylonitrile] | 1.3908 ± 0.0008 | 800.6 ± 0.2 kg/m3
CO [methanol] | 1.3286 ± 0.0008 | 791.3 ± 0.2 kg/m3
O [water] | 1.3333 ± 0.0008 | 

From the NIST ThermoML archive (doi:10.1021/je2009208)
